Common to all, as to assay type: cell-based
One assay deals with T1, human A2B receptor (Homo sapiens, UniProt P29275).
T1 construct: expressed in transfected cells; host or cells: HEK293
T1 sequence (P29275 1-332): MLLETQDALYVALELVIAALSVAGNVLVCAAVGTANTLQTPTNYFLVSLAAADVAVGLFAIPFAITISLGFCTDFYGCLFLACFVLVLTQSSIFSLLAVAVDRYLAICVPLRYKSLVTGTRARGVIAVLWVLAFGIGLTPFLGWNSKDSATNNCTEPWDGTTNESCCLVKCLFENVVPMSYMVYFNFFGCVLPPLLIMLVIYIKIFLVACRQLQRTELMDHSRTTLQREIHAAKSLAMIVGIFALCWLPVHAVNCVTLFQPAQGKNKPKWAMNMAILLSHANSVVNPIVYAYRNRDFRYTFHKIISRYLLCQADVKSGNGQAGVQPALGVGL
In words: cAMP (HTRF) functional assay, recombinant HEK293 cells expressing human A2B receptor, agonist NECA. As to the method: (§1) The functional activities of human A2A, A2B, A1 and A3 receptors were determined by quantification of cAMP, being the second messenger for adenosine receptors.
(§2) Cells were seeded into 384-well plates, forskolin, test compounds and agonists (CPA for A1- and IB-MECA for A3-receptor) were added. After 30 min incubation, HTRF reagents (cAMP dynamic 2, Cis Bio) were added and the cellular cAMP levels were determined using the ENVISION (Perkin Elmer) plate reader. Obtained raw data were normalized against the inhibitor control and the neural control (DMSO) and the normalized data were fitted using GeneData software.
Background: TR-FRET usually uses a lanthanide donor and a delayed reading to cut background.

In a further assay the target is T2, human A1 receptor (Homo sapiens, UniProt P30542).
T2 construct: expressed in transfected cells; host or cells: CHO
T2 sequence (P30542 1-326): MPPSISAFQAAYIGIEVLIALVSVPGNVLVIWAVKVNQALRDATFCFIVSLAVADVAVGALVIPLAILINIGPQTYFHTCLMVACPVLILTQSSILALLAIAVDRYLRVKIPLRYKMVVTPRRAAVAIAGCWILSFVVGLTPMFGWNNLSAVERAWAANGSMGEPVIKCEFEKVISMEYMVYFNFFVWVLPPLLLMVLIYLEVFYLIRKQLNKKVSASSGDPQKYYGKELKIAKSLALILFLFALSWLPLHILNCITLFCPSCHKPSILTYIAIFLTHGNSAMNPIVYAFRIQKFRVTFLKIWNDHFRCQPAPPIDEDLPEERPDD
In words: cAMP (HTRF) functional assay, recombinant CHO cells expressing human A1 receptor, forskolin + agonist CPA. As to the method:
as §1
(§3) For human A1 and A3 receptors, recombinant CHO cells, expressing either A1 or A3-receptor, were used. As both receptors couple to Gi proteins, the assay protocol was adapted:
as §2

The target in another assay is T3, human A3 receptor (Homo sapiens, UniProt P0DMS8).
T3 construct: expressed in transfected cells; host or cells: CHO
T3 sequence (P0DMS8 1-318): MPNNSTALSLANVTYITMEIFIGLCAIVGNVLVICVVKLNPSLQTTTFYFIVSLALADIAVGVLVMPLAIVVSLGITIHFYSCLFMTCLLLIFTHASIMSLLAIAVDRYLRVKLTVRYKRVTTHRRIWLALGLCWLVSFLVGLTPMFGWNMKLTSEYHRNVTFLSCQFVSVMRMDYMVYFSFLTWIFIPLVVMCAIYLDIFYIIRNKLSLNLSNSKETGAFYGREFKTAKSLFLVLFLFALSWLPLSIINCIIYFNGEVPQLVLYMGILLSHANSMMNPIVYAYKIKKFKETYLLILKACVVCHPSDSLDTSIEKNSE
The experiment in a line: cAMP (HTRF) functional assay, recombinant CHO cells expressing human A3 receptor, forskolin + agonist IB-MECA. As for the experimental part:
as §1, §3, §2

A further assay deals with T4, human A2A receptor (Homo sapiens, UniProt P29274).
T4 construct: expressed in transfected cells; host or cells: HEK293
The experiment in a line: cAMP (HTRF) functional assay, recombinant HEK293 cells expressing human A2A receptor, agonist NECA. As for the experimental part: as §1, §2

T4 sequence (P29274 whole entry): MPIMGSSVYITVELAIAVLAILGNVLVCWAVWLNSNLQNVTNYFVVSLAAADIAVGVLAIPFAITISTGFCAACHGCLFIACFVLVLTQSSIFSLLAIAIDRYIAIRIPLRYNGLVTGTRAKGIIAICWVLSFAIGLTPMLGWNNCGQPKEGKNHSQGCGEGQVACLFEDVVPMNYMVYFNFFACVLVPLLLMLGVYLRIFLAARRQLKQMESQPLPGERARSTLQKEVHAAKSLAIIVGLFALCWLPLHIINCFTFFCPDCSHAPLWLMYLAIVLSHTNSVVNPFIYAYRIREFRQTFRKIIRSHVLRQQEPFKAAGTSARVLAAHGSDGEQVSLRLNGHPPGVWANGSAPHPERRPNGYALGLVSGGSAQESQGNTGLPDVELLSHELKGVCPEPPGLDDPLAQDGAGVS

What is called IC50 is the midpoint of a concentration-inhibition curve. For `COc1ncc(N2CCOCC2)c2sc(NC(=O)N3CCC(O)(Cc4ccccc4)CC3)nc12` [compound 7, 4-benzyl-4-hydroxy-N-[4-methoxy-7-(morpholin-4-yl)-[1,3]thiazolo[4,5-c]pyridin-2-yl]piperidine-1-carboxamide], the concentration for half-maximal inhibition (IC50) on human A2B receptor was < 0.1 µM; at human A1 receptor, < 1 µM; at human A3 receptor, > 1 µM; at human A2A receptor, < 0.1 µM.

As for `COc1ncc(N2CCOCC2)c2sc(NC(=O)N3CCC4(CCOC4)C3)nc12` (centres unmarked) [compound 9, 2-Oxa-7-aza-spiro[4.4]nonane-7-carboxylic acid (4-methoxy-7-morpholin-4-yl-thiazolo[4,5-c]pyridin-2-yl)-amide], the IC50 on human A2B receptor was < 1 µM; at human A1 receptor, > 1 µM; at human A3 receptor, > 1 µM; on human A2A receptor it was < 0.01 µM.

With `COCc1ccc(C(=O)Nc2nc3c(OC)ncc(-c4cnn(C)c4)c3s2)cc1` [compound 14], the IC50 on human A2B receptor is < 1 µM; at human A1 receptor, < 1 µM; at human A3 receptor it was < 1 µM; at human A2A receptor, < 0.01 µM.

Consider `COc1ncc(N2CCOCC2)c2sc(NC(=O)c3ccc(C(=O)N(C)C)cc3)nc12` [compound 15, N-(4-Methoxy-7-morpholin-4-yl-thiazolo[4,5-c]pyridin-2-yl)-N′,N′-dimethyl-terephthalamide], for which the IC50 is < 0.1 µM at human A2B receptor, > 1 µM on human A1 receptor, > 1 µM at human A3 receptor and < 0.01 µM on human A2A receptor.

`COc1ncc(N2CCOCC2)c2sc(NC(=O)N3CC[C@]4(CCOC4)C3)nc12` [compound 17, (5S)-N-[4-methoxy-7-(morpholin-4-yl)-[1,3]thiazolo[4,5-c]pyridin-2-yl]-2-oxa-7-azaspiro[4.4]nonane-7-carboxamide]: the 50% inhibitory concentration (IC50) on human A2B receptor was < 1 µM; at human A1 receptor, > 1 µM; at human A3 receptor, > 1 µM; at human A2A receptor, < 0.01 µM.

As to `COc1ncc(N2CCOCC2)c2sc(NC(=O)N3CC[C@@]4(CCOC4)C3)nc12` [compound 18, (5R)-N-[4-methoxy-7-(morpholin-4-yl)-[1,3]thiazolo[4,5-c]pyridin-2-yl]-2-oxa-7-azaspiro[4.4]nonane-7-carboxamide], the 50% inhibitory concentration (IC50) at human A2B receptor is < 1 µM; on human A1 receptor, > 1 µM; on human A3 receptor, > 1 µM; at human A2A receptor, < 0.01 µM.

Consider `COc1ncc(-c2cnn(C)c2)c2sc(NC(=O)N3CCC(C)(O)CC3)nc12` [compound 21, 4-Hydroxy-4-methyl-piperidine-1-carboxylic acid [4-methoxy-7-(1-methyl-1H-pyrazol-4-yl)-thiazolo[4,5-c]pyridin-2-yl]-amide], for which the IC50 on human A2B receptor is < 0.1 µM; at human A1 receptor it was < 1 µM; at human A3 receptor, < 1 µM; on human A2A receptor, < 0.01 µM.

Regarding `COCc1ccc(C(=O)Nc2nc3c(OC)ncc(C4CCOCC4)c3s2)cc1` [compound 23, 4-Methoxymethyl-N-[4-methoxy-7-(tetrahydro-pyran-4-yl)-thiazolo[4,5-c]pyridin-2-yl]-benzamide], the IC50 at human A2B receptor was < 0.1 µM; at human A1 receptor, < 1 µM; on human A3 receptor, > 1 µM; on human A2A receptor it was < 0.01 µM.

Regarding `COCCn1cc(C(=O)Nc2nc3c(OC)ncc(C4CCOCC4)c3s2)cn1` [compound 29, 1-(2-Methoxy-ethyl)-1H-pyrazole-4-carboxylic acid [4-methoxy-7-(tetrahydro-pyran-4-yl)-thiazolo[4,5-c]pyridin-2-yl]-2-amide], the IC50 at human A2B receptor is < 0.1 µM; on human A1 receptor, < 1 µM; at human A3 receptor, < 1 µM; on human A2A receptor it was < 0.01 µM.

Regarding `COc1ncc(C2CCOCC2)c2sc(NC(=O)N3CCC(C)(O)CC3)nc12` [compound 30, 4-Hydroxy-4-methyl-piperidine-1-carboxylic acid [4-methoxy-7-(tetrahydro-pyran-4-yl)-thiazolo[4,5-c]pyridin-2-yl]-amide], the IC50 on human A2B receptor is < 0.1 µM; on human A1 receptor, < 1 µM; at human A3 receptor it was > 1 µM; on human A2A receptor, < 0.01 µM.

In the case of `COc1ncc(-c2ccccc2)c2sc(NC(=O)N3CCC4(CCCOC4)C3)nc12` (centres unmarked) [compound 52, 7-Oxa-2-aza-spiro[4.5]decane-2-carboxylic acid (4-methoxy-7-phenyl-thiazolo[4,5-c]pyridin-2-yl)-amide], the 50% inhibitory concentration (IC50) is < 0.1 µM at human A2B receptor, < 1 µM on human A1 receptor, > 1 µM at human A3 receptor and < 0.01 µM on human A2A receptor.

With `COc1ncc(-c2ccccc2)c2sc(NC(=O)N3CCC4(CCOCC4)C3)nc12` [compound 53, 8-Oxa-2-aza-spiro[4.5]decane-2-carboxylic acid (4-methoxy-7-phenyl-thiazolo[4,5-c]pyridin-2-yl)-amide], the IC50 is < 0.1 µM at human A2B receptor, > 1 µM at human A1 receptor, > 1 µM on human A3 receptor and < 0.01 µM on human A2A receptor.

Turning to `COc1ncc(-c2ccccc2)c2sc(NC(=O)N3CCC4(CCOC4)C3)nc12` (centres unmarked) [compound 54, 2-Oxa-7-aza-spiro[4.4]nonane-7-carboxylic acid (4-methoxy-7-phenyl-thiazolo[4,5-c]pyridin-2-yl)-amide], the concentration for half-maximal inhibition (IC50) on human A2B receptor was < 0.1 µM; at human A1 receptor, < 1 µM; on human A3 receptor it was > 1 µM; at human A2A receptor it was < 0.01 µM.

Regarding `COc1ncc(-c2ccccc2)c2sc(NC(=O)c3ccc(C(=O)N(C)C)cc3)nc12` [compound 58, N-(4-Methoxy-7-phenyl-thiazolo[4,5-c]pyridin-2-yl)-N′,N′-dimethyl-terephthalamide], the IC50 on human A2B receptor was < 0.01 µM; on human A1 receptor it was < 1 µM; on human A3 receptor, > 1 µM; at human A2A receptor, < 0.01 µM.

For the compound `COc1ncc(-c2cnn(C)c2)c2sc(NC(=O)N3CCC4(CCOC4)C3)nc12` (centres unmarked) [compound 82, 2-Oxa-7-aza-spiro[4.4]nonane-7-carboxylic acid [4-methoxy-7-(1-methyl-1H-pyrazol-4-yl)-thiazolo[4,5-c]pyridin-2-yl]-amide], the IC50 on human A2B receptor was < 0.1 µM; on human A1 receptor it was > 1 µM; at human A3 receptor it was > 1 µM; on human A2A receptor, < 0.01 µM.

Take `COc1ncc(C2CCOCC2)c2sc(NC(=O)c3ccc(C(=O)N(C)C)cc3)nc12` [compound 113, N-[4-Methoxy-7-(tetrahydro-pyran-4-yl)-thiazolo[4,5-c]pyridin-2-yl]-N′,N′-dimethyl-terephthalamide]: the IC50 on human A2B receptor is < 0.1 µM; at human A1 receptor, > 1 µM; on human A3 receptor it was > 1 µM; at human A2A receptor it was < 0.01 µM.

For the compound `COc1ncc(-c2cnn(C)c2)c2sc(NC(=O)c3cnc(C)o3)nc12` [compound 130, 2-Methyl-oxazole-5-carboxylic acid [4-methoxy-7-(1-methyl-1H-pyrazol-4-yl)-thiazolo[4,5-c]pyridin-2-yl]-amide], the IC50 on human A2B receptor is < 0.1 µM; on human A1 receptor, < 1 µM; at human A3 receptor it was > 1 µM; at human A2A receptor, < 0.01 µM.

As for `COc1ncc(N2CC3(CCCO3)C2)c2sc(NC(=O)c3cnn(C)c3)nc12` [compound 156, 1-Methyl-1H-pyrazole-4-carboxylic acid [4-methoxy-7-(5-oxa-2-aza-spiro[3.4]oct-2-yl)-thiazolo[4,5-c]pyridin-2-yl]-amide], the concentration for half-maximal inhibition (IC50) was < 0.1 µM at human A2B receptor, > 1 µM at human A1 receptor, < 1 µM at human A3 receptor and < 0.1 µM at human A2A receptor.

As for `COc1ncc(N2CCOCC2)c2sc(NC(=O)C3CC3)nc12` [compound 167, Cyclopropanecarboxylic acid (4-methoxy-7-morpholin-4-yl-thiazolo[4,5-c]pyridin-2-yl)-amide], the concentration for half-maximal inhibition (IC50) on human A2B receptor is < 0.1 µM; on human A1 receptor it was > 1 µM; on human A3 receptor it was > 1 µM; at human A2A receptor it was < 0.01 µM.

As to `COc1ncc(N2CCOCC2)c2sc(NC(=O)c3cnn(C)c3)nc12` [compound 171, 1-Methyl-1H-pyrazole-4-carboxylic acid (4-methoxy-7-morpholin-4-yl-thiazolo[4,5-c]pyridin-2-yl)-amide], the 50% inhibitory concentration (IC50) on human A2B receptor is < 0.1 µM; on human A1 receptor, < 1 µM; at human A3 receptor, < 1 µM; on human A2A receptor, < 0.01 µM.

(Values after patent publication US11186592B2, “Thiazolopyridine derivatives as adenosine receptor antagonists” (MERCK PATENT GMBH, priority 2017, dated 2021).)
